According to patent publication US20260315434A1, “USE OF GUAIACOL SESQUITERPENE LACTONE DERIVATIVES” (NANJING UNIVERSITY OF CHINESE MEDICINE, priority 2023, published 2026):
Where two headings read alike, the source gives them in different places.

How the values were obtained:
[1] = test system: inflammatory cytokines (TNF, IL-6, IL-1) in renal tissue; assay: UUO chronic kidney injury, renal inflammatory factor mRNA; format: in vivo, C57BL/6 mice; parameters: unit not given here; conditions: UUO chronic model
Text: (§1) Chronic Kidney Injury: Mice were randomly divided into five groups. […] Except for the sham-operated mice in the normal group (where only the left ureter was exposed without further manipulation), all other mice underwent unilateral ureteral ligation to establish a chronic kidney injury model as follows: The abdominal skin was disinfected with iodine solution followed by alcohol. An incision was made, and the abdominal layers were dissected sequentially. The left ureter was fully exposed and dissected. A double ligation was performed at the bladder-proximal end of the left ureter using absorbable suture material, followed by closure.
(§2) The blood was allowed to stand at room temperature for 2 hours, then centrifuged at 3000 rpm for 20 minutes. Serum was aspirated, aliquoted, and stored at −70° C. for future use. Following blood collection, euthanize mice by cervical dislocation. Perform laparotomy to remove kidneys, dissect out perirenal fat and capsules. […] Paraffin-embedded specimens undergo HE staining; remaining tissue is stored at −70° C. for future use.

[2] = test system: fibrosis-related factors (α-Sma, Col1a1, Tgfb1) in kidney tissue; assay: UUO chronic kidney injury, renal fibrosis-related factor mRNA; format: in vivo, C57BL/6 mice; parameters: unit not given here; conditions: UUO chronic model
Text: as §1, §2

T cells / MDSCs = assay: Promotion of T cell proliferation in a co-culture model of MDSCs and T cells; format: cell-based, mouse; conditions: for activation at 1 µM: Mus musculus, T-cell, 12 h
Procedure, shortened: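 Bone-marrow MDSCs, after compound treatment, were co-cultured 48 h at 1:1 with CFDA-SE-labelled (10 μM solution), activated splenic T cells. Proliferation of CD3+ T cells was read by flow cytometry.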

H22 cells = assay: Antitumor effect in H22 mouse hepatocellular carcinoma subcutaneous xenograft model; format: in vivo, BALB/c mice; conditions: for Tumor Suppression Rate (%) / Tumor weight: 40 μmol/kg/day, H22 xenograft
MDSCs = assay: Proportion of MDSCs in tumor and spleen of H22 xenograft mice (flow cytometry); format: in vivo, BALB/c mice; conditions: for Spleen MDSCs (%) / Tumor-associated MDSCs (%): 40 μmol/kg/day, oral, 2 weeks, flow cytometry
Experimental: Once all tumors were dissected, nail-sized tumor pieces were transferred to 1.5 mL Eppendorf tubes and minced with scissors. Transfer the minced tumor tissue suspension to a 15 mL centrifuge tube containing 3-5 mL of digestive enzymes (Collagenase IV 1 mg/mL, Hyaluronidase 1 mg/mL, DNase 120 U/mL). Incubate at 200 rpm and 37° C. for 1 hour. After digestion, pass the mixture through a 200-mesh sieve to obtain the tumor cell suspension. Centrifuge the resulting tumor suspension at 1600 rpm for 5 min, aspirate the supernatant, resuspend cells in 1 mL of 1×PBS per tube. Transfer the cell suspension to a 1.5 mL Eppendorf tube, centrifuge at 1600 rpm for 5 min, remove the supernatant, resuspend cells in 100 μL of 1×PBS per tube, add 1 μL of dead/live dye to each tube, mix thoroughly, and incubate at room temperature in the dark for 15 min. […] Position the spleen on a 200-mesh cell strainer. Gently press the spleen using a 10 mL syringe needle. […] Transfer the washed splenocyte suspension into a 15 mL centrifuge tube. Centrifuge at 1600 rpm for 5 min to collect cells. Wash once with 1×PBS. Add 3 mL red blood cell lysis buffer (diluted with ddH2O) to each tube and incubate for 5 min. After lysis, add 10 mL 1×PBS to each tube to terminate lysis. Centrifuge at 1600 rpm for 5 min. Add 1 mL 1×PBS to each 15 mL centrifuge tube, transfer to 1.5 mL EP tubes, and centrifuge at 1600 rpm for 5 min. Add 1 mL 1×PBS to each tube containing stained tumor cells and lysed spleen cells for one wash, centrifuge at 1600 rpm for 5 min, and remove the supernatant. Resuspend tumor cells and spleen cells separately in 100 μL 1×PBS. Add 1 μL FcX™ antibody to each tube and incubate at room temperature in the dark for 10 min. After incubation, sequentially add 1 μL each of CD45, CD11b, Gr1 antibodies. Incubate at 4° C. in the dark for 30 min. After incubation, wash once with 1×PBS, discard the supernatant, resuspend cells in 300 μL 1×PBS, filter the membrane into a flow cytometry tube, and proceed to instrument analysis.

[3] = compared with solvent control, result in words

Row | SMILES | Il1 mRNA expression, kidney ([1]; 0.1 mg/kg oral) | Il6 mRNA expression, kidney ([1]; 0.1 mg/kg oral) | Tnf mRNA expression, kidney ([1]; 0.1 mg/kg oral) | Col1a1 mRNA expression, kidney ([2]; 0.1 mg/kg oral) | α-Sma mRNA expression, kidney ([2]; 0.1 mg/kg oral) | Tumor Suppression Rate (%) (H22 cells; oral, 2 weeks) | Tumor weight (H22 cells; oral, 2 weeks) [g] | tumor-inhibiting effect, H22 (H22 cells; oral, 2 weeks, result in words) | Spleen MDSCs (%) (MDSCs) | Tumor-associated MDSCs (%) (MDSCs) | proportion of MDSCs in tumor tissues and spleens (MDSCs; [3]) | Il1 mRNA expression, kidney ([1]; 1 mg/kg oral, 1 mg/kg) | Il6 mRNA expression, kidney ([1]; 1 mg/kg oral, 1 mg/kg) | Tnf mRNA expression, kidney ([1]; 1 mg/kg oral, 1 mg/kg) | Col1a1 mRNA expression, kidney ([2]; 1 mg/kg oral, 1 mg/kg) | Tgfb1 mRNA expression, kidney ([2]; 1 mg/kg oral, 1 mg/kg) | α-Sma mRNA expression, kidney ([2]; 1 mg/kg oral, 1 mg/kg) | further results
1 | CC1=C2CC[C@@](C)(OC(=O)N3CCCC3)[C@@H]2[C@H]2OC(=O)[C@@H](CN3CCCC3)[C@@H]2CC1 [Compound 103] | 5.45 ± 2.35 | 52.89 ± 40.54 | 4.21 ± 0.82 | 10.58 ± 2.78 | 6.33 ± 0.96 | 60.34 | 5.02 ± 0.48 | tumor-inhibiting effects | 24.33 ± 5.02 | 10.62 ± 6.50 | significantly reduced | – | – | – | – | – | – | Il1 mRNA expression, kidney ([1]; 1 mg/kg oral): 3.49 ± 0.93; Il6 mRNA expression, kidney ([1]; 1 mg/kg oral): 32.19 ± 25.90; Tnf mRNA expression, kidney ([1]; 1 mg/kg oral): 3.80 ± 0.40; Il1 mRNA expression, kidney ([1]; 10 mg/kg oral): 3.19 ± 0.85; Il6 mRNA expression, kidney ([1]; 10 mg/kg oral): 31.08 ± 18.80; Tnf mRNA expression, kidney ([1]; 10 mg/kg oral): 3.06 ± 0.47; Col1a1 mRNA expression, kidney ([2]; 1 mg/kg oral): 11.02 ± 2.81; α-Sma mRNA expression, kidney ([2]; 1 mg/kg oral): 6.01 ± 1.21; Col1a1 mRNA expression, kidney ([2]; 10 mg/kg oral): 9.31 ± 2.28; α-Sma mRNA expression, kidney ([2]; 10 mg/kg oral): 4.86 ± 0.99; activation at 1 µM (T cells / MDSCs; read-out: T-cell proliferation rate (%), 1 μM, MDSCs treated 12 hours, co-culture of MDSCs and T cells, compared to the control group): 20 to 40%
2 | CC1=C2CC[C@@](C)(OC(=O)N3CCCCC3)[C@@H]2[C@H]2OC(=O)[C@@H](CN(C)C)[C@@H]2CC1 [Compound 102] | – | – | – | – | – | 27.99 | 6.13 ± 1.48 | tumor-inhibiting effects | 30.37 ± 9.84 | 32.11 ± 6.33 | significantly reduced | – | – | – | – | – | – | –
3 | CN(C)C[C@@H]1C(=O)O[C@H]2[C@H]1CC[C@@]1(C)C[C@]13CC[C@@](C)(O)[C@H]23 [Compound 20] | – | – | – | – | – | 70.86 | 4.88 ± 0.87 | tumor-inhibiting effects | 23.10 ± 5.35 | 7.86 ± 6.19 | significantly reduced | 2.77 ± 0.40 | 3.69 ± 1.26 | 5.09 ± 0.66 | 7.30 ± 0.90 | 1.44 ± 0.21 | 1.26 ± 0.18 | –
4 | CN(C)C[C@@H]1C(=O)O[C@H]2[C@H]1CC[C@@]1(C)C[C@]13CC[C@@](C)(O)[C@H]23 [Compound 21] | 5.32 ± 0.56 | 14.31 ± 6.01 | 7.10 ± 1.93 | 11.79 ± 1.18 | 2.02 ± 0.39 | – | – | – | – | – | – | 3.55 ± 0.50 | 5.61 ± 2.10 | 7.53 ± 0.68 | 8.27 ± 1.15 | 1.53 ± 0.14 | 1.39 ± 0.04 | Tgfb1 mRNA expression, kidney ([2]; 0.1 mg/kg oral): 1.76 ± 0.05; T-cell proliferation rate (%) (T cells / MDSCs; 1 μM, MDSCs treated 12 hours, co-culture of MDSCs and T cells, compared to the control group): + (T-cell proliferation rate within the 0-20% range compared to the control group)
5 | C=C1C(=O)O[C@@H]2[C@H]3C(C)=CC[C@@]34O[C@@]4(C)CC[C@@H]12 [Arg, Arglabin, reference compound] | – | – | – | – | – | – | – | – | – | – | – | – | – | – | – | – | – | activation at 1 µM (T cells / MDSCs; read-out: T-cell proliferation rate (%)): > 40%; tumor-inhibiting effect, H22 (H22 cells; mouse, in vivo, po): tumor-inhibiting effects; proportion of MDSCs in tumor tissues and spleens (MDSCs; mouse, in vivo): significantly reduced
